Assay results taken from the NIST ThermoML archive (doi:10.1016/j.jct.2004.12.008).

Experiment: xn = mol fraction of the nth substance listed
Settings: 101 kPa, Liquid

O=[N+]([O-])c1ccccc1 [nitrobenzene] + c1ccccc1
Settings	mass density [kg/m3]
293.15 K, x2 = 0	1202.95
293.15 K, x2 = 0.0532	1187.99
293.15 K, x2 = 0.1189	1169.24
293.15 K, x2 = 0.1842	1150.3
293.15 K, x2 = 0.2479	1131.5
293.15 K, x2 = 0.3012	1115.52
293.15 K, x2 = 0.3581	1098.17
293.15 K, x2 = 0.425	1077.37
293.15 K, x2 = 0.4891	1057.04
293.15 K, x2 = 0.5311	1043.49
293.15 K, x2 = 0.6023	1020.07
293.15 K, x2 = 0.6521	1003.34
293.15 K, x2 = 0.7198	980.14
293.15 K, x2 = 0.7811	958.64
293.15 K, x2 = 0.8534	932.66
293.15 K, x2 = 0.9212	907.66
303.15 K, x2 = 0	1193.56
303.15 K, x2 = 0.0612	1176.18
303.15 K, x2 = 0.1384	1153.92
303.15 K, x2 = 0.1732	1143.76
303.15 K, x2 = 0.2543	1119.7
303.15 K, x2 = 0.3132	1101.89
303.15 K, x2 = 0.3821	1080.7
303.15 K, x2 = 0.4422	1061.84
303.15 K, x2 = 0.4922	1045.9
303.15 K, x2 = 0.5543	1025.75
303.15 K, x2 = 0.6123	1006.56
303.15 K, x2 = 0.6831	982.62
303.15 K, x2 = 0.7534	958.28
303.15 K, x2 = 0.8113	937.78
303.15 K, x2 = 0.8713	916.1
303.15 K, x2 = 0.9378	891.52
313.15 K, x2 = 0	1183.37
313.15 K, x2 = 0.0522	1168.46
313.15 K, x2 = 0.1234	1147.88
313.15 K, x2 = 0.1923	1127.63
313.15 K, x2 = 0.2612	1107.04
313.15 K, x2 = 0.3122	1091.57
313.15 K, x2 = 0.3723	1073.06
313.15 K, x2 = 0.4234	1057.08
313.15 K, x2 = 0.4865	1037.03
313.15 K, x2 = 0.5382	1020.3
313.15 K, x2 = 0.6032	998.9
313.15 K, x2 = 0.6632	978.75
313.15 K, x2 = 0.7219	958.66
313.15 K, x2 = 0.7932	933.72
313.15 K, x2 = 0.8428	916.03
313.15 K, x2 = 0.9247	886.12
323.15 K, x2 = 0	1172.38
323.15 K, x2 = 0.0479	1158.64
323.15 K, x2 = 0.1387	1132.24
323.15 K, x2 = 0.1842	1118.82
323.15 K, x2 = 0.2487	1099.55
323.15 K, x2 = 0.3286	1075.26
323.15 K, x2 = 0.392	1055.64
323.15 K, x2 = 0.435	1042.13
323.15 K, x2 = 0.5023	1020.68
323.15 K, x2 = 0.543	1007.49
323.15 K, x2 = 0.592	991.42
323.15 K, x2 = 0.6633	967.59
323.15 K, x2 = 0.7328	943.85
323.15 K, x2 = 0.7931	922.82
323.15 K, x2 = 0.8538	901.23
323.15 K, x2 = 0.9423	868.96
333.15 K, x2 = 0	1160.59
333.15 K, x2 = 0.0501	1146.17
333.15 K, x2 = 0.1421	1119.35
333.15 K, x2 = 0.1924	1104.47
333.15 K, x2 = 0.2517	1086.72
333.15 K, x2 = 0.3184	1066.47
333.15 K, x2 = 0.3618	1053.11
333.15 K, x2 = 0.4248	1033.47
333.15 K, x2 = 0.4921	1012.12
333.15 K, x2 = 0.5524	992.65
333.15 K, x2 = 0.6013	976.62
333.15 K, x2 = 0.664	955.73
333.15 K, x2 = 0.723	935.71
333.15 K, x2 = 0.7813	915.56
333.15 K, x2 = 0.8342	896.97
333.15 K, x2 = 0.9234	864.89
343.15 K, x2 = 0	1148
343.15 K, x2 = 0.0632	1129.76
343.15 K, x2 = 0.1567	1102.42
343.15 K, x2 = 0.219	1083.91
343.15 K, x2 = 0.2678	1069.26
343.15 K, x2 = 0.3347	1048.9
343.15 K, x2 = 0.3972	1029.6
343.15 K, x2 = 0.4581	1010.51
343.15 K, x2 = 0.5124	993.23
343.15 K, x2 = 0.5639	976.61
343.15 K, x2 = 0.6384	952.15
343.15 K, x2 = 0.7038	930.24
343.15 K, x2 = 0.7598	911.15
343.15 K, x2 = 0.8234	889.07
343.15 K, x2 = 0.8824	868.19
343.15 K, x2 = 0.9423	846.61

C=Cc1ccccc1 [styrene] + O=[N+]([O-])c1ccccc1
Settings	mass density [kg/m3]
293.15 K, x1 = 0.0536	1185.47
293.15 K, x1 = 0.1324	1160.15
293.15 K, x1 = 0.1909	1141.63
293.15 K, x1 = 0.2564	1121.18
293.15 K, x1 = 0.3257	1099.86
293.15 K, x1 = 0.3986	1077.76
293.15 K, x1 = 0.4576	1060.12
293.15 K, x1 = 0.5243	1040.42
293.15 K, x1 = 0.5888	1021.61
293.15 K, x1 = 0.6424	1006.13
293.15 K, x1 = 0.7156	985.23
293.15 K, x1 = 0.7756	968.27
293.15 K, x1 = 0.8324	952.34
293.15 K, x1 = 0.8755	940.34
293.15 K, x1 = 0.9424	921.83
293.15 K, x1 = 1	906
303.15 K, x1 = 0.0621	1173.19
303.15 K, x1 = 0.1248	1152.93
303.15 K, x1 = 0.1822	1134.64
303.15 K, x1 = 0.2429	1115.56
303.15 K, x1 = 0.3139	1093.59
303.15 K, x1 = 0.3571	1080.39
303.15 K, x1 = 0.4249	1059.93
303.15 K, x1 = 0.4819	1042.96
303.15 K, x1 = 0.5487	1023.33
303.15 K, x1 = 0.5901	1011.29
303.15 K, x1 = 0.6528	993.23
303.15 K, x1 = 0.7289	971.58
303.15 K, x1 = 0.7913	954.03
303.15 K, x1 = 0.8592	935.12
303.15 K, x1 = 0.9368	913.72
303.15 K, x1 = 1	896.44
313.15 K, x1 = 0.0492	1167.15
313.15 K, x1 = 0.1189	1144.52
313.15 K, x1 = 0.1898	1121.9
313.15 K, x1 = 0.2563	1101.03
313.15 K, x1 = 0.3398	1075.31
313.15 K, x1 = 0.4018	1056.54
313.15 K, x1 = 0.4621	1038.54
313.15 K, x1 = 0.5243	1020.21
313.15 K, x1 = 0.5811	1003.69
313.15 K, x1 = 0.6421	986.16
313.15 K, x1 = 0.7132	965.98
313.15 K, x1 = 0.7723	949.39
313.15 K, x1 = 0.8421	930.01
313.15 K, x1 = 0.8942	915.68
313.15 K, x1 = 0.9524	899.79
313.15 K, x1 = 1	886.88
323.15 K, x1 = 0.0598	1152.7
323.15 K, x1 = 0.1329	1129.06
323.15 K, x1 = 0.1942	1109.58
323.15 K, x1 = 0.2458	1093.41
323.15 K, x1 = 0.3239	1069.35
323.15 K, x1 = 0.3891	1049.61
323.15 K, x1 = 0.4314	1036.97
323.15 K, x1 = 0.5028	1015.92
323.15 K, x1 = 0.5622	998.67
323.15 K, x1 = 0.6321	978.64
323.15 K, x1 = 0.6873	963.03
323.15 K, x1 = 0.7419	947.74
323.15 K, x1 = 0.8054	930.15
323.15 K, x1 = 0.8823	909.1
323.15 K, x1 = 0.9339	895.1
323.15 K, x1 = 1	877.32
333.15 K, x1 = 0.0647	1139.39
333.15 K, x1 = 0.1278	1119.07
333.15 K, x1 = 0.1825	1101.73
333.15 K, x1 = 0.2542	1079.38
333.15 K, x1 = 0.3183	1059.76
333.15 K, x1 = 0.3798	1041.24
333.15 K, x1 = 0.4248	1027.86
333.15 K, x1 = 0.4892	1008.97
333.15 K, x1 = 0.5329	996.32
333.15 K, x1 = 0.5892	980.2
333.15 K, x1 = 0.6379	966.41
333.15 K, x1 = 0.7132	945.37
333.15 K, x1 = 0.7987	921.85
333.15 K, x1 = 0.868	903.04
333.15 K, x1 = 0.9468	881.9
333.15 K, x1 = 1	867.76
343.15 K, x1 = 0.0687	1125.66
343.15 K, x1 = 0.1139	1111.2
343.15 K, x1 = 0.1842	1089.06
343.15 K, x1 = 0.2389	1072.13
343.15 K, x1 = 0.3234	1046.47
343.15 K, x1 = 0.3894	1026.81
343.15 K, x1 = 0.4346	1013.54
343.15 K, x1 = 0.4903	997.4
343.15 K, x1 = 0.5538	979.25
343.15 K, x1 = 0.614	962.29
343.15 K, x1 = 0.6622	948.88
343.15 K, x1 = 0.7319	929.71
343.15 K, x1 = 0.7922	913.35
343.15 K, x1 = 0.8531	896.99
343.15 K, x1 = 0.9234	878.32
343.15 K, x1 = 1	858.2
353.15 K, x1 = 0.055	1116.88
353.15 K, x1 = 0.1376	1090.79
353.15 K, x1 = 0.1726	1079.91
353.15 K, x1 = 0.2389	1059.6
353.15 K, x1 = 0.302	1040.61
353.15 K, x1 = 0.3791	1017.85
353.15 K, x1 = 0.4349	1001.66
353.15 K, x1 = 0.5139	979.13
353.15 K, x1 = 0.5628	965.4
353.15 K, x1 = 0.6249	948.19
353.15 K, x1 = 0.6733	934.94
353.15 K, x1 = 0.7234	921.37
353.15 K, x1 = 0.7981	901.38
353.15 K, x1 = 0.8621	884.47
353.15 K, x1 = 0.9412	863.83
353.15 K, x1 = 1	848.64
